pEC50: −log10 of the molar value. Structures can show the parent of a compound that is named as a salt. Where two headings read alike, the source gives them in different places.
Columns and labels:
[1] = system: Aβ1-40; assay: Aβ1-40 content in conditioned medium of primary cortico-hippocampal neuron cultures from Tg2576 mice (ELISA; primary and secondary dose-response screening); type: cell-based, mouse; details: for activity at 100 µM / Ab1-40 (% of ctl): drug 100 μM; for activity at 100 µM: read-out: Ab1-40 (% of ctl); for pEC50: read-out: EC50 (molar) Aβ1-40; for reduced Aβ1-40: <85% of ctl
Procedure, shortened: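 Primary cortico-hippocampal neurons from embryonic Tg2576 mice were plated at 1.0×10^5 cells per well on poly-D-lysine-coated 96-well plates in Neurobasal with 2% B27, 0.5 mM L-glutamine and 1% penicillin-streptomycin. Cultures received drug in 1% DMSO, and Aβ1-40 in the conditioned medium was measured by BioSource ELISA 24 hours after treatment, relative to vehicle controls.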

[2] = system: Aβ1-42; assay: Aβ1-42 content in conditioned medium of primary cortico-hippocampal neuron cultures from Tg2576 mice (ELISA; primary and secondary dose-response screening); type: cell-based, mouse; details: for activity at 100 µM: Mus musculus, Neuron, 24 h, read-out: Ab1-42 (% of ctl); for activity at 100 µM / Ab1-42 (% of ctl): drug 100 μM; for reducing Aβ1-42: <85% of ctl
Procedure, shortened: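 This screen tested cardiovascular drugs for Aβ-lowering in Tg2576 embryonic cortico-hippocampal neuron cultures plated at 1.0×10^5 cells per well in poly-D-lysine-coated 96-well plates with Neurobasal/B27 medium. Drugs at 100 μM were added directly to the medium in duplicate, with 1% DMSO alone as the control. Conditioned medium was then collected, and its Aβ1-42 level was quantified with BioSource ELISA kits.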

[3] = system: Aβ1-42; assay: as above; type: cell-based, mouse; details: for pEC50 / activity at 100 µM: 24 h; for pEC50: read-out: EC50 (molar) Aβ1-42; for activity at 100 µM: primary screening, drug 100 μM, Tg2576 neuron cultures, table sorted by Aβ1-42, read-out: Ab1-42 (% of ctl)
[4] = system: primary cortico-hippocampal neuron cultures; assay: MTT in primary screening
[5] = system: primary cortico-hippocampal neuron cultures; assay: lactate dehydrogenase (LDH) activity assay in parallel neuron cultures; details: for LDH at E-5M % of change: drug at E-5M
[6] = Mus musculus, Neuron, 24 h, Primary Screening, table sorted by Aβ1-40
[7] = Mus musculus, Neuron, 24 h, primary screening, Tg2576 neuron cultures, table sorted by Aβ1-42
[8] = Mus musculus, Neuron, secondary dose-response screening 0.01-100 μM, 24 hours
[9] = Primary Screening, table sorted by Aβ1-40
[10] = primary screening, Tg2576 neuron cultures, table sorted by Aβ1-42
[11] = primary screening, table sorted by Aβ1-42
[12] = secondary dose-response screening 0.01-100 μM, 24 hours
[13] = Mus musculus, 24 h, primary screening, Tg2576 neuron cultures, table sorted by Aβ1-42

SMILES | pEC50 [3, 8] | MTT (% of ctl) [4, 9] | MTT (% of ctl) [4, 11] | LDH (% of ctl) [5, 9] | LDH at E-5M % of change [5] | LDH (% of ctl) [5, 11] | activity at 100 µM [1, 6] | activity at 100 µM [1, 7] | reduced Aβ1-40 ([1]; primary screening) | activity at 100 µM [2, 9] | activity at 100 µM [2, 10] | reducing Aβ1-42 ([2]; primary screening) | Ab1-40 (% of ctl) [1, 9] | Ab1-42 (% of ctl) [2, 9] | further results
CC[C@@H](C)C(=O)O[C@H]1[C@H](O)[C@H]2[C@@H](CN3C[C@@H](C)CC[C@H]3[C@@]2(C)O)[C@@H]2C[C@]34O[C@]5(O)[C@@H](OC(=O)[C@](C)(O)[C@@H](C)O)CC[C@@]3(C)[C@@H]5[C@@H](OC(C)=O)[C@@H](OC(C)=O)[C@H]4[C@@]21O (stereo in doubt) [Protoveratrine B] |  | 58.5 % of ctl | 58.5 % of ctl | 729.8 % of ctl | −2.5% | 729.8 % of ctl |  |  | reduced Aβ1-40 |  |  |  | 61.8 % of ctl | 93.3 % of ctl | Ab1-40 (% of ctl) [1, 10]: 61.8 % of ctl; pEC50 [1, 12]: 5.17; Ab1-42 (% of ctl) [2, 10]: 93.3 % of ctl; EC50 (molar) Aβ1-42 [3, 12]: no fit
NNc1nncc2ccccc12 [Hydralazine Hydrochloride] | 4.98 | 95.7 % of ctl | 95.7 % of ctl | 101.1 % of ctl | −1.2% | 101.1 % of ctl | 66.1% | 66.1% | reduced Aβ1-40 | 63.2% | 63.2% | useful in reducing Aβ1-42 |  |  | EC50 ([1]; Mus musculus, Neuron, Table IV, dose-response 0.01-100 μM, read-out: EC50 (M): Ab-lowering activity Abeta1-40): 9.29e-06 M; pEC50 [1, 8]: 5.03; EC50 ([3]; Mus musculus, Neuron, Table IV, dose-response 0.01-100 μM, read-out: EC50 (M): Ab-lowering activity): 1.04e-05 M; LDH (at 5F-5 M) ([5]; Table IV): no change
NCCc1cc(O)c(O)cc1O [Oxidopamine Hydrochloride] |  | 121.5 % of ctl | 121.5 % of ctl | 103.6 % of ctl |  | 103.6 % of ctl |  |  | reduced Aβ1-40 |  |  | useful in reducing Aβ1-42 | 43.8 % of ctl | 36.4 % of ctl | activity at 100 µM [1, 13]: 43.8%; activity at 100 µM ([3]; Mus musculus): 36.4%
CC(C)N(CCC(C(N)=O)(c1ccccc1)c1ccccn1)C(C)C (stereo not shown) [Disopyramide Phosphate] | 4.27 | 71.2 % of ctl | 71.2 % of ctl | 125.8 % of ctl | −3.7% | 125.8 % of ctl | 83.5% | 83.5% | reduced Aβ1-40 | 66.3% | 66.3% | useful in reducing Aβ1-42 |  |  | pEC50 ([1]; Mus musculus, Neuron, 24 h): 9.11
COc1ccc(CCN(C)CCCC(C#N)(c2ccc(OC)c(OC)c2)C(C)C)cc1OC (stereo not shown) [Verapamil] |  |  |  | 92.5 % of ctl |  | 92.5 % of ctl |  |  | reduced Aβ1-40 |  |  |  | 70.9 % of ctl | 101.1 % of ctl | activity at 100 µM [1, 13]: 70.9%; activity at 100 µM ([3]; Mus musculus): 101%
Cc1cc(C(C)(C)C)cc(C)c1CC1=NCCN1 [Xylometazoline Hydrochloride] |  | 88.2 % of ctl | 88.2 % of ctl | 110.8 % of ctl |  | 110.8 % of ctl |  |  | reduced Aβ1-40 |  |  | useful in reducing Aβ1-42 | 66.6 % of ctl | 71.8 % of ctl | activity at 100 µM [1, 13]: 66.6%; activity at 100 µM ([3]; Mus musculus): 71.8%
O=C(O)C(O)C(O)C(=O)O.OCc1cccnc1 (stereo not shown) [Nicotinyl Tartrate] |  | 92.7 % of ctl | 92.7 % of ctl | 122.6 % of ctl |  | 122.6 % of ctl |  |  | reduced Aβ1-40 |  |  | useful in reducing Aβ1-42 | 80.0 % of ctl | 73.8 % of ctl | Ab1-40 (% of ctl) [1, 10]: 80.0 % of ctl; Ab1-42 (% of ctl) [2, 10]: 73.8 % of ctl
CC[C@H]1CN2CC[C@H]1C[C@@H]2[C@@H](O)c1ccnc2ccc(OC)cc12 [Hydroquinidine] |  | 103.6 % of ctl | 103.6 % of ctl | 102.2 % of ctl |  | 102.2 % of ctl | 96.5% | 96.5% |  | 121% | 121% |  |  |  | 

Second part, led by results:

pEC50 [3, 8] | MTT (% of ctl) [4, 9] | MTT (% of ctl) [4, 11] | LDH (% of ctl) [5, 9] | LDH at E-5M % of change [5] | LDH (% of ctl) [5, 11] | SMILES | activity at 100 µM [1, 6] | activity at 100 µM [1, 7] | reduced Aβ1-40 ([1]; primary screening) | activity at 100 µM [2, 9] | activity at 100 µM [2, 10] | reducing Aβ1-42 ([2]; primary screening) | Ab1-40 (% of ctl) [1, 9] | Ab1-42 (% of ctl) [2, 9] | further results
3.04 | 87.2 % of ctl | 87.2 % of ctl | 157.8 % of ctl | −3.4% | 157.8 % of ctl | COC(=O)[C@H]1[C@H]2C[C@@H]3c4[nH]c5cc(OC)ccc5c4CCN3C[C@H]2C[C@@H](OC(=O)c2cc(OC)c(OC)c(OC)c2)[C@@H]1OC [Reserpine] | 24.7% | 24.7% | reduced Aβ1-40 | 38.7% | 38.7% | useful in reducing Aβ1-42 |  |  | pEC50 [1, 8]: 4.25
7.06 | 110.3 % of ctl | 110.3 % of ctl | 90.7 % of ctl | −3.4% | 90.7 % of ctl | Cc1ccc(N(CC2=NCCN2)c2cccc(O)c2)cc1 [Phentolamine Hydrochloride] | 83.4% | 83.4% | reduced Aβ1-40 | 72.9% | 72.9% | useful in reducing Aβ1-42 |  |  | pEC50 [1, 8]: 4.92
4.55 | 115.6 % of ctl | 115.6 % of ctl | 100.4 % of ctl | −4.0% | 100.4 % of ctl | COCCOC(=O)C1=C(C)NC(C)=C(C(=O)OC(C)C)C1c1cccc([N+](=O)[O-])c1 (stereo not shown) [Nimodipine] | 79.1% | 79.1% |  | 90.9% | 90.9% |  |  |  | pEC50 ([3]; Mus musculus, Neuron, conditioned medium of primary cortico-hippocampal neuron cultures from Tg2576 embryos, 24 hours after treatment, relative to vehicle (1% DMSO) control): 4.55
 | 87.7 % of ctl | 87.7 % of ctl | 111.3 % of ctl |  | 111.3 % of ctl | CCOC(=O)C1=C[C@]2(CC)CCCN3CCc4c(n1c1ccccc41)[C@@H]32 [Vinpocetine] | 60.4% | 60.4% | reduced Aβ1-40 | 105% | 105% |  |  |  | 
 | 69.7 % of ctl | 69.7 % of ctl | 103.7 % of ctl |  | 103.7 % of ctl | Cc1ccccc1N1C(=O)c2cc(S(N)(=O)=O)c(Cl)cc2NC1C (stereo not shown) [Metolazone] | 104% | 104% |  | 98% | 98% |  |  |  | 
 | 112.5 % of ctl | 112.5 % of ctl | 117.6 % of ctl |  | 117.6 % of ctl | COc1ccc2cc1Oc1ccc(cc1)C[C@H]1c3cc(c(OC)cc3CCN1C)Oc1c(OC)c(OC)cc3c1[C@H](C2)N(C)CC3 [Tetrandrine] | 4.5% | 4.5% |  | 25.2% | 25.2% |  |  |  | 
